Assay results: paper PMC5075098, “Preclinical Evaluation of the Stability, Safety, and Efficacy of CD101, a Novel Echinocandin” (Antimicrobial Agents and Chemotherapy, 2016)
Where two headings read alike, the source gives them in different places. Starred links: 1 amine or outer side, 2 acyl side, 3 side chain; linkers in the order of their positions; H or OH if unused. Positions of bridges follow the written chain, without caps; N, C: chain ends. Non-standard residues stand in square brackets, D forms with d. Residues, ends and D or L forms follow the SMILES beside them. *: point of attachment. Orn(4R-OH,5R-OCH2CH2NMe3+) = C[N+](C)(C)CCO[C@@H](N[*:3])[C@H](O)C[C@H](N[*:1])C(=O)[*:2]; pTerphenylCO(4''-OnC5H11) = CCCCCOc1ccc(-c2ccc(-c3ccc(C(=O)*)cc3)cc2)cc1; hTyr(3S-OH,4S-OH) = N[C@H](C(=O)O)[C@H](O)[C@@H](O)c1ccc(O)cc1; Pro(3S-OH,4S-Me) = C[C@H]1CN[C@H](C(=O)O)[C@H]1O; Hyp = O=C(O)[C@@H]1C[C@@H](O)CN1

Key:
[1] = Metabolic stability in liver microsomes; details: for t1/2, NADPH free / half-life in liver microsomes: 1 μM; for t1/2, NADPH free: up to 2 h at 37°C, LC-MS/MS, first-order decay fit; for half-life in liver microsomes: NADPH state not specified, 37°C; for half-life: liver microsomes
Procedure: Metabolic stability was determined as described in reference. […] Following incubation, samples were quenched with ice-cold methanol or acetonitrile (ACN), containing an appropriate internal standard and centrifuged to remove precipitated protein, and the supernatants were analyzed to quantitate the remaining parent. […] Data were converted to the percentage remaining by dividing by the time zero concentration value. Data were fit to a first-order decay model to determine half-life. Intrinsic clearance was calculated from the half-life and the protein concentrations.

[2] = Plasma protein binding, rapid equilibrium dialysis; type: in vitro ADME, CD-1 mouse; details: mouse, pH 7.4, read-out: protein bound (converted)
Procedure: (§1) Rapid equilibrium dialysis (RED) ([16]) was used to determine cross-species protein binding of CD101 in CD-1 mouse, Sprague-Dawley rat, cynomolgus monkey, chimpanzee, and human plasma. […] Dialysis buffer (350 μl of phosphate-buffered saline [PBS], pH 7.4, with 100 mM sodium phosphate) was loaded into the buffer (left) channel of the RED device. The device was agitated gently at 37°C for 4 h. Samples were placed into a new 96-well plate for matrix matching (25 μl of plasma added to the dialysis buffer aliquots or 25 μl of dialysis buffer to the plasma aliquots). […] Following centrifugation, 200 μl of the supernatant was transferred to a clean 96-well plate and evaporated to dryness at 37°C under nitrogen. Samples were reconstituted in 100 μl of 1:1 acetonitrile-water prior to analysis by LC-MS/MS. The percentage bound was calculated as the difference between 100% and the percentage free (the ratio of the concentration in supernatant to the concentration in plasma).

[3] = Plasma protein binding, rapid equilibrium dialysis; type: in vitro ADME, Sprague-Dawley rat; details: rat, pH 7.4, read-out: protein bound (converted)
Procedure: as §1

[4] = Plasma protein binding, rapid equilibrium dialysis; type: in vitro ADME, cynomolgus monkey; details: monkey, pH 7.4, read-out: protein bound (converted)
Procedure: as §1

[5] = Plasma protein binding, rapid equilibrium dialysis; type: in vitro ADME, chimpanzee; details: pH 7.4, read-out: protein bound (converted)
Procedure: as §1

[6] = Inhibition of recombinant CYP450 enzymes; type: in vitro ADME; details: recombinant CYP450 enzymes 1A2, 2B6, 2C8, 2C9, 2C19, 2D6, 3A4
[7] = Reactive metabolite screening (glutathione trapping); type: in vitro ADME
Procedure: Samples were diluted to 10 μg/ml into 50:50 acetonitrile-water with 0.1 formic acid. Samples were analyzed by LC (Agilent 1100) with high-resolution MS (Waters quadrupole time of flight [Q-TOF] Premier mass spectrometer with electrospray interface) with concurrent low- and high-energy scans to obtain full-scan parent and product fragment ions. The analytical column was a Phenomenex Kinetex (2.6-μm C18, 100 by 3.0 mm). Waters MassLynx 4.1 software was used for data analysis.

C. albicans R303 [8] = details: CLSI broth microdilution, read after 24 h at 35°C, prominent growth inhibition (∼50%)
Procedure: (§2) Enumeration of MIC and MEC assay inoculum viable counts was performed by plating aliquots of the starting assay inoculum on Sabouraud dextrose agar.

[9] = after 44 h; cited from earlier work
Description: CD101, a novel echinocandin being developed as a high-exposure, once-weekly intravenous (i.v.) formulation for the treatment and prevention of systemic fungal infections, was designed to be chemically and metabolically stable to avoid hepatotoxicity while retaining the antifungal activity of an echinocandin.

[10] = 4-week repeat-dose, ref Ong et al., submitted, cited from earlier work
Description: The studies described herein are part of a comprehensive series of safety, pharmacology, and toxicology studies of up to 4 weeks' duration as well as genetic toxicology studies, as required for an investigational new drug application. The results provide important insights for further research and development of CD101 and are best considered in this broader, developing context.

[11] = system: A. fumigatus (ATCC 13073); test: MEC/MIC, CLSI broth microdilution; details: 24 h at 35°C, rounded/compact hyphal morphology
Procedure: as §2

CYP2C8 = molecular target: T1, CYP2C8 (Homo sapiens, UniProt P10632); test: CYP450 inhibition in human liver microsomes
T1 sequence (P10632 1-490): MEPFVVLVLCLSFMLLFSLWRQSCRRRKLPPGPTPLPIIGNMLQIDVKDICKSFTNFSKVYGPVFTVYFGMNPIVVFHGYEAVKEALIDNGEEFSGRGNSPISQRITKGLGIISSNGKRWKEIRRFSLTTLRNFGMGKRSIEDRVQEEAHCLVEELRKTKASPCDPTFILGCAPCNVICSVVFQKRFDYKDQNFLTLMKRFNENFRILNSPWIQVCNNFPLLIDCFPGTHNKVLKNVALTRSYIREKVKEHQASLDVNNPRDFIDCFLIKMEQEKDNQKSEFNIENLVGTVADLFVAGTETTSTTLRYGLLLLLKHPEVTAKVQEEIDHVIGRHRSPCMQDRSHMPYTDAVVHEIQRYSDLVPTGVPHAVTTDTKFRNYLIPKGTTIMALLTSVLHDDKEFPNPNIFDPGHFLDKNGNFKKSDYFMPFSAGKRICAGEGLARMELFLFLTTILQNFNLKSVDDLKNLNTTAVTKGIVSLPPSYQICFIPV
Procedure: (§3) The final DMSO content in the reaction mixture was equal in all solutions used within an assay and was less than 0.2%. […] After incubation for 5 min at 37°C, the reactions were terminated by addition of methanol-containing internal standard (propranolol) for analytical quantification. The quenched samples were incubated at 4°C for 10 min and centrifuged at 4°C for 10 min.

[12] = CYP450 inhibition in human liver microsomes; details: pH 7.4, IC50, human liver microsomes, 0.03 to 30 μM, 5 min at 37°C, pH 7.4, LC-MS/MS, duplicate
Procedure: as §3

[13] = system: A. fumigatus (ATCC 13073); test: Neutropenic mouse model of A. fumigatus infection, survival; details: for survival: 10-day observation, n = 10/group
Procedure: Animals were immunosuppressed by three i.p. injections of cyclophosphamide (the first injection at 6 mg/mouse 3 days before inoculation and the second and third injections at 2 mg/mouse on 1 and 4 days after inoculation). […] Dose administration started 1 and 7 h after infection. […] An increase of 50% or more in the survival rate of the active groups compared to the vehicle group indicated significant antifungal efficacy.

C. albicans R303 [14] = test: Neutropenic mouse model of C. albicans infection, kidney colony counts; details: for log reduction in CFU per gram relative to vehicle: 24, 48, 72 h
Procedure: Immunosuppression was induced by two intraperitoneal (i.p.) injections of cyclophosphamide at 150 mg/kg 4 days before and 100 mg/kg 1 day before inoculation. […] The animals in the fluconazole group were sacrificed 48 h after infection.

CCCCCOc1ccc(-c2ccc(-c3ccc(C(=O)N[C@H]4C[C@@H](O)[C@@H](OCC[N+](C)(C)C)NC(=O)[C@@H]5[C@@H](O)[C@@H](C)CN5C(=O)[C@H]([C@@H](C)O)NC(=O)[C@H]([C@H](O)[C@@H](O)c5ccc(O)cc5)NC(=O)[C@@H]5C[C@@H](O)CN5C(=O)[C@H]([C@@H](C)O)NC4=O)cc3)cc2)cc1 [CD101] ({pTerphenylCO(4''-OnC5H11)}-[Orn(4R-OH,5R-OCH2CH2NMe3+)]T[Hyp][hTyr(3S-OH,4S-OH)]T[Pro(3S-OH,4S-Me)]; lactam 1-C)
t1/2, NADPH free ([1]; human liver microsomes without NADPH): >4 h
half-life in liver microsomes ([1]; human microsomes): ≥ 4 h
half-life ([1]; human): > 4 h
t1/2, NADPH free ([1]; monkey liver microsomes without NADPH): >4 h
half-life in liver microsomes ([1]; monkey microsomes): ≥ 4 h
half-life ([1]; monkey): > 4 h
microsomal CLint ([1]; monkey, microsomes): 2.1 µL/min/mg
fraction unbound [2]: 0.009
fraction unbound [3]: 0.022
fraction unbound [4]: 0.011
fraction unbound [5]: 0.012
IC50 [6]: > 10 µM
degradation on incubation with and without GSH ([7]; PBS pH 7.4, 37°C, 24 h of incubation (Fig. 3 legend), LC-HRMS): No degradation observed
GSH adduct formation (reactive intermediate) ([7]; PBS pH 7.4, excess GSH, 37°C, LC with high-resolution MS): not found to generate any GSH adduct
MIC (C. albicans R303 [8]): 0.12 µg/mL
% remaining in human plasma [9]: 93%
no observed adverse effect level relative to the efficacious plasma exposure level ([10]; cynomolgus monkeys): 47 times
no observed adverse effect level relative to the efficacious plasma exposure level ([10]; rats): 34 times
MEC [11]: 0.004 µg/mL
IC50 (CYP2C8): 25.7 µM
IC50 ([12]; midazolam substrate (2.5 μM)): 29 µM
IC50 ([12]; testosterone substrate (50 μM)): > 30 µM
survival ([13]; 0.2 mg/kg i.v. BID for 5 days): 80%
survival ([13]; 1 mg/kg i.v. BID for 5 days): 90%
survival ([13]; 5 mg/kg i.v. BID for 5 days): 100%
10-day survival rate compared to the vehicle group ([13]; BID for 5 days, CD101 all dose groups and anidulafungin 1 and 5 mg/kg i.v. (P < 0.05), amphotericin B 0.3 mg/kg i.p.): significant increase
log reduction in CFU per gram relative to vehicle (C. albicans R303 [14]; 0.2 mg/kg single i.v. dose): less than 1 log
log reduction in CFU per gram relative to vehicle (C. albicans R303 [14]; 0.4 mg/kg single i.v. dose): up to 1.7 log
log reduction in CFU per gram relative to vehicle (C. albicans R303 [14]; 0.6 mg/kg single i.v. dose): up to 2.9 log
log reduction in CFU per gram relative to vehicle (C. albicans R303 [14]; 0.8 mg/kg single i.v. dose): up to 4.7 log
antimicrobial effect (≥99%, 2-log reduction in CFU per gram) (C. albicans R303 [14]; CD101 0.6 and 0.8 mg/kg i.v., at 24, 48, and 72 h): significant
